Drawing on the supplement of paper PMC10307832, this text covers relative viability for 1 cell line.

Common to all, as to experiment: relative viability (nuclei count vs DMSO), 5 days (fraction); higher = more cells survive
Compound in assay [1]: NCC(=O)Nc1ccc(-n2nc(C(F)(F)F)cc2-c2ccc3c(ccc4ccccc43)c2)cc1 + CCNC(=O)c1noc(-c2cc(C(C)C)c(O)cc2O)c1-c1ccc(CN2CCOCC2)cc1 [Luminespib] (partner 0.01 µM)
The procedure, abridged:
(§1)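 Medians of duplicate plates are given as relative viability. That measure is the nuclei count in treated wells divided by the count in vehicle wells. Counts were taken on 4× images of lung cancer cell lines in 1536-well plates, 5 days after pin-tool dosing the day after seeding with one drug alone or a fixed anchor-drug dose plus five library-drug doses (not always all listed) in √10 steps.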

Compound in assay [2]: NCC(=O)Nc1ccc(-n2nc(C(F)(F)F)cc2-c2ccc3c(ccc4ccccc43)c2)cc1 + CC(C)C[C@H](NC(=O)[C@H](Cc1ccccc1)NC(=O)c1cnccn1)B(O)O [Bortezomib] (partner 0.002 µM)
The procedure, abridged:
as §1

Compound in assay [3]: NCC(=O)Nc1ccc(-n2nc(C(F)(F)F)cc2-c2ccc3c(ccc4ccccc43)c2)cc1 + Cc1nc(NC(=O)N2CCC[C@H]2C(N)=O)sc1-c1ccnc(C(C)(C)C(F)(F)F)c1 [Alpelisib] (partner 2 µM)
The procedure, abridged: as §1

Compound in assay [4]: NCC(=O)Nc1ccc(-n2nc(C(F)(F)F)cc2-c2ccc3c(ccc4ccccc43)c2)cc1 + Nc1nc2[nH]cc(CCc3ccc(C(=O)N[C@@H](CCC(=O)O)C(=O)O)cc3)c2c(=O)[nH]1 [Pemetrexed] (partner 0.2 µM)
The procedure, abridged:
as §1

In the case of UMC-11, the relative viability in assay [1] (first compound 0.02 µM) amounted to 1.06; in assay [1] (first compound 0.06325 µM), 0.965; in assay [1] (first compound 0.2 µM) it was 1.05; in assay [1] (first compound 0.6325 µM), 0.948; in assay [1] (first compound 2 µM) it was 0.948; in assay [2] (first compound 0.02 µM), 0.831. Also, the relative viability was 0.762 in assay [2] (first compound 0.06325 µM); 0.693 in assay [2] (first compound 0.2 µM); 0.658 in assay [2] (first compound 0.6325 µM); 0.674 in assay [2] (first compound 2 µM); 0.985 in assay [3] (first compound 0.02 µM); 0.968 in assay [3] (first compound 0.06325 µM). The relative viability came out at 1.03 in assay [3] (first compound 0.2 µM); 0.958 in assay [3] (first compound 0.6325 µM); 1.1 in assay [3] (first compound 2 µM); 0.835 in assay [4] (first compound 0.02 µM); 0.699 in assay [4] (first compound 0.06325 µM); 0.905 in assay [4] (first compound 0.2 µM). For the same cell line, the relative viability in assay [4] (first compound 0.6325 µM) stood at 0.853; in assay [4] (first compound 2 µM), 0.759.
